Laboratory results: patent publication US4925835A, “Aziridinyl putrescine containing compositions and their uses in treating prostate cancer” (priority 1987, dated 1990)

Key:
[1] = test system: human prostate cancer cell line PC-3; test: cells; type: cell-based
Experimental: Aziridinyl putrescine 1-(4-aminobutyl) aziridine was synthesized using the method as described by Piper, et al., J. Med. Chem. 12: 236-243 (1968). Cells of the human prostate cancer cell line PC-3 were used.
10^3 PC-3 human cells were plated in RPMI 1640 with 10% FCS/3 ml in 60 mm^2 petri dishes. The cell plates were incubated either with, or without difluoromethylornithine for 48 hours. This was followed by aspiration, and replacement with a medium containing either no additives, 50 uM 1-(4-aminobutyl) aziridine, 1 mM putrescine, or both 50 uM 1-(4-aminobutyl) aziridine and 1 mM putrescine. The media were aspirated after 1 hour, and replaced with a drug free medium. Incubation continued for 5 days.
*Represents mean number of colonies ± one standard deviation of
triplicate assay. Number in parenthesis is percent of control.

[2] = test system: uptake of [14C]putrescine into PC-3 cells; type: cell-based, human; conditions: PC-3 cells
Experimental: FIG. 1. Lineweaver-Burk plot of the uptake of [^14 C]putrescine by DFMO-pretreated cells. The ordinate is expressed as 1/pmol/15 min. The abscissa is expressed as 1 μM concentrations containing from 16 to 1.0 μM [^14 C]putrescine.
Fifty thousand PC-3 cells were plated in 12-well plates and 18 h later the incubation medium was removed and replaced with 1 ml or RPMI 1640 medium containing 25 mM 4-(2-hydroxyethyl)-1-piperazineethansulfonic acid buffer, 100 μM aminoguanidine, and 10% FCS. Forty-eight h later the medium was replaced with medium which contained [^14 C]putrescine in concentrations ranging from 16 to 1.0 μM with or without 5 1M 1-(4-aminobutyl) aziridine. Following incubation at 37° C. for 15 min the [^14 C]putrescine-containing medium was aspirated, and the cells were rinsed rapidly 4 times with HBSS. Following the last rinse, 1.0 ml of a solution of 0.1N NaOH was added and after a 2-h incubation at room temperature a 0.2-ml aliquot was added to 1 ml of 2% glacial acidic acid and 10 ml of Scintiverse 1 scintillation cocktail and the radioactive disintegrations were determined with a Packard Tri-Carb 300 scintillation spectrophotometer. Counting efficiency for ^14 C was 80%. Kinetic analysis of uptake was performed by graphic methods as described by Dixon and Webb, Enzymes, p. 322, New York Academic Press (1959).
In FIG. 1 a Lineweaver-Burk plot of the uptake of [^14 C]-putrescine into the PC-3 cells is presented and was used to determine the Km (intercept x axis) and Vmax (intercept y axis) for putrescine.

normal rat prostate = test: In vivo antiprostatic activity, prostate wet weight; conditions: Copenhagen rats
Experimental: 1-(4-aminobutyl) aziridine, difluoromethylornithine, and a combination of 1-(4-aminobutyl) aziridine and difluoromethylornithine were tested in vivo for antiprostatic activity using Copenhagen rats. The normal rat prostate is often used as a model or control for drugs which are suspected of having antiprostatic cancer activity. Sloan, et al., Cancer Chemother. Rep. 59: 185-194 (1975). 1-(4-aminobutyl) aziridine, difluoromethylornithine, and a combination of 1-(4-aminobutyl) aziridine and difluoromethylornithine were administered to twenty-eight (28) Copenhagen rats for 14 days. 1-(4-aminobutyl) aziridine was administered by an infusion mini-pump implanted intraperitoneally.
Difluoromethylornithine was administered orally. The 1-(4-aminobutyl) aziridine was delivered at a rate of 2 mg/kg/day. A similar amount of difluoromethylornithine was administered orally on a daily basis. Before loading the infusion pump, the pH of 1-(4-aminobutyl) aziridine was adjusted to 7.5 with hydrochloric acid. The pump rate was 0.5 u./hr.
The prostates of the twenty-eight (28) subjects were removed, freed of fat and weighed to the nearest milligram.

[3] = 14 days, AZP 2 mg/kg/day by intraperitoneal infusion mini-pump, DFMO similar amount orally

In the case of `NCCCCN1CC1` [AZP, 1-(4-aminobutyl) aziridine], the activity at 50 µM ([1]; Homo sapiens, PC-3, read-out: Clonogenic survivors, percent of control) is reported as 36%, the inhibition at 50 µM ([1]; Homo sapiens, PC-3, read-out: Inhibition of proliferation of human prostate cancer cells in culture, AZP at 50 uM, from Table 1) is reported as about 64% and the “Clonogenic survivors (mean number of colonies ± one standard deviation)” value ([1]; PC-3, 48 h with or without DFMO, then 1 h with 50 uM AZP and/or 1 mM putrescine, 5 days drug free) is reported as 210 ± 30 colonies. The “Type of inhibition of putrescine uptake” value [2] was “consistent with competitive inhibition”, the Ki ([2]; with or without difluoromethylornithine pretreatment, 5 1M AZP, read-out: Apparent Ki for inhibition of putrescine uptake) was 1 µM and the “Reduction of the size of the normal ventral prostate” value (normal rat prostate; 2 mg/kg/day over a fourteen day period) was “approximately 67%”. For the same compound, the “Animal toxicity (weight or fur loss, poor posture)” value (normal rat prostate; 2 mg/kg/day, 14 days) was “no evidence of animal toxicity”, the “Organ toxicity on examination at sacrifice (liver, spleen, intestine, kidneys)” value (normal rat prostate; 2 mg/kg/day, 14 days) was “no other organs, e.g., liver, spleen, intestine, kidneys, demonstrated any evidence of toxicity” and the “Effect on prostate size (in words)” value (normal rat prostate; 14 days) was “significantly decreased the size of the normal ventral prostates”. For the same compound, the “Dorsal Lateral Prostate, milligram wet weight (SEM)” value (normal rat prostate; [3]) was 474 ± 39 milligram and the “Ventral Prostate, milligram wet weight (SEM)” value (normal rat prostate; [3]) was 378 ± 30 milligram.
